Laboratory results as given in patent US9371324B2, “Substituted pyrido[3′,4′:4,5]pyrrolo[1,2,3-de]quinoxalines for the treatment of nervous system disorders” (INTRA-CELLULAR THERAPIES, INC., priority 2010, dated 2016).
Where two headings read alike, the source gives them in different places.

How the values were obtained:
[1] = Single dose oral bioavailability and pharmacokinetic study in Sprague Dawley rats; format: in vivo, Sprague Dawley rat; details: for AUC(0-t) / Cmax / Tmax / half-life: Sprague Dawley (Crl:CD(SD)BR), rat, plasma, mean, after single oral 30 mg/kg of Example 1, label = analyte; for half-life: read-out: t½ (converted); for Course of plasma concentration over time: rats, after oral Example 1, 30 mg/kg, over 8 hours
Procedure: Animals are Used for the Study:
• Strain/Species: Sprague Dawley (Crl:CD®(SD)BR) Rat • Sex: Male and Female • Age at Receipt: 7-8 weeks • Weight Range: 225-300 g • Number of Animals on Study: 3 Males and 3 Females Preparation of Dosage Formulation
The suspension is prepared by placing the required amount of methylcellulose in deionized water in a glass container. The suspension are kept stirring with a magnetic stirrer until completion of daily dosing. The dose suspensions are prepared on the day of dosing for each test article group.
A total of 3 male and 3 female rats are dosed at 30 mg/kg. Blood samples are collected at 0.30 min, 1, 4 and 8 h after dosing. Plasma samples are analyzed to determine plasma concentrations of the Compound of Example 1, the Compound of Formula Q wherein X is —N(CH3)— and Y is —C(═O), and the Compound of Formula Q wherein X is —N(H)— and Y is —C(═O). The pharmacokinetic profile is determined using WinNonlin.
Animals are anesthetized with isoflurane, and whole blood (˜0.5 mL/time point) is collected from the orbital sinus utilizing a glass capillary tube on the first day of treatment at the following times: 0.30 min, 1, 4 and 8 h after dosing. Whole blood (˜0.5 mL) is collected into chilled plastic tubes containing sodium heparin as supplied by the manufacturer. The blood collection tubes are mixed several times by manual inversion or gentle vortexing and stored on wet ice until centrifugation. The blood is centrifuged (˜2700 g, ˜10 min, ˜5° C.). Plasma is transferred with disposable plastic pipettes to plastic vials and stored at approximately −70° C. until analyzed.

[2] = Hydrolysis of Example 4 in EDTA-containing rat whole blood; format: in vitro ADME; details: for Concentration: Example 4 incubated in rat whole blood at 37 degrees, HPLC-MS
dopamine receptors = assay: Step-down latency test; format: in vivo; details: mice; oral; tests at 120, 180, 240 and 360 minutes; FIG. 2
Procedure: Drugs that antagonize dopamine receptors in the brain slow motor behavior and can induce a cataleptic state. This activity can be assessed in mice using a simple step down latency test. In this test, mice are held by the tail, and the rodents forepaws are placed on a rod and its hindpaws placed on the bench top. The time for forepaws to step down from the rod is then measured. A maximum of 2 min is allowed at which time the animal is taken away from the rod and returned to the home cage. The compound of Example 1 or haloperidol (used as a positive control) is administered orally 120 minutes before the first test. Step down latency tests are conducted at 120, 180, 240, and 360 minutes after the administration of the compound of Example 1 or haloperidol. After each test mice are returned to their cages. The results are show in FIG. 2.

SERT = SERT (Homo sapiens, UniProt P31645); assay: biochemical
[3] = target: T1, serotonin reuptake transport (SERT) (Homo sapiens, UniProt P31645); assay: Inhibition of serotonin uptake in a human platelet assay using tritiated serotonin; format: cell-based
T1 construct: endogenous in cells; host or cells: human platelets

5-HT2 receptor = assay: DOI-induced head twitch test in mice; format: in vivo; details: oral
Excerpt: When administered to mice, it produces a behavioral profile associated with frequent head twitches. The frequency of these head twitches during a predetermined period of time can be taken as an estimate of 5-HT2 receptor agonism in the brain. Conversely, this behavioral assay can be used to determine 5-HT2 receptor antagonism in the brain by administering the DOI with or without an antagonist and recording the reduction in DOI-induced head twitches after the administration of the antagonist.
The method of Darmani et al., Pharmacol Biochem Behav. (1990) 36:901-906 (the contents of which are incorporated by reference in their entirety) is used with some modifications. (±)-DOI HCl is injected subcutaneously and the mice are immediately placed in a conventional plastic cage. The number of head twitches is counted during 6 min, beginning 1 min after DOI administration. The compound of Example 1 is administered orally 0.5 hr before the injection of DOI.

T1 sequence (P31645 whole entry): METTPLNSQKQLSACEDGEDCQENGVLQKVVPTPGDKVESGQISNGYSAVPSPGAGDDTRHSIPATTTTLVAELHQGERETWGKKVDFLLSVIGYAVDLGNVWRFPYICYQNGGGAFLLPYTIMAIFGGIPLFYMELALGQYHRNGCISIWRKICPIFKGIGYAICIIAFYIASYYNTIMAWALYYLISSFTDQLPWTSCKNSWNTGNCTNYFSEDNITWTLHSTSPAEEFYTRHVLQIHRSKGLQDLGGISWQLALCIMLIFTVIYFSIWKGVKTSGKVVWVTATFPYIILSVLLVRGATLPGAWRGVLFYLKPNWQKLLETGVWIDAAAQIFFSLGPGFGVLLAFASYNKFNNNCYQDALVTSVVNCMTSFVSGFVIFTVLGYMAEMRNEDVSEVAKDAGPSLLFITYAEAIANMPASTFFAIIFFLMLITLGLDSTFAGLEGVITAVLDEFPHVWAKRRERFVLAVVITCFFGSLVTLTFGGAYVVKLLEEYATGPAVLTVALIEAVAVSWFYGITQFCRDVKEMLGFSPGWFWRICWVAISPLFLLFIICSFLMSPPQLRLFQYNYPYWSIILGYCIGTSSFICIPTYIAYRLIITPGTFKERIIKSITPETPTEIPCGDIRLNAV
Sequence of SERT (P31645 whole entry): as above

AUC(0-t) ([1]; female rats) [ng·h/mL] | Cmax ([1]; female rats) [ng/mL] | Tmax ([1]; female rats) [h] | half-life ([1]; female rats) [h] | AUC(0-t) ([1]; male rats) [ng·h/mL] | Cmax ([1]; male rats) [ng/mL] | Tmax ([1]; male rats) [h] | half-life ([1]; male rats) [h] | Course of plasma concentration over time [1] | Concentration ([2]; 5 min) [µM] | Concentration ([2]; 10 min) [µM] | Concentration ([2]; 15 min) [µM] | Concentration ([2]; 30 min) [µM] | Concentration ([2]; 60 min) [µM] | Concentration ([2]; 90 min) [µM] | Structure (SMILES) | also measured
71 | 11.8 | 1 | 23.4 | 54.5 | 4.85 | 0.75 | 12.1 | maintained over 8 hours | – | – | – | – | – | – | CN1CCN2c3c(cccc31)[C@@H]1CN(CCCC(=O)c3ccc(F)cc3)CC[C@@H]12 | –
89.7 | 12.8 | 5.33 | – | 37.4 | 5.84 | 1 | 17.8 | maintained over 8 hours | – | – | – | – | – | – | O=C(CCCN1CC[C@H]2[C@@H](C1)c1cccc3c1N2CCN3)c1ccc(F)cc1 | –
767 | 144 | 3.33 | 11.6 | 421 | 91.6 | 0.83 | 5.83 | generally decreases over time | 8.43 | 12.02 | 13.42 | 19.21 | 24.66 | 33.31 | CN1CCN2c3c(cccc31)[C@@H]1CN(CCCC(O)c3ccc(F)cc3)CC[C@@H]12 (stereo partly shown) [Example 1] | Effect on step down latency (dopamine receptors): significantly and dose dependently increased step down latency; Ki (SERT): 71 nM; Ki [3]: 1500 nM; SERT inhibitory activity ([3]; imipramine as reference, compared with the corresponding keto compound of Formula Q): potent SERT inhibitory activity; IC50 for reducing DOI-induced head twitches (5-HT2 receptor; 0.5 hr before DOI, twitches counted during 6 min): 0.31 mg/kg; Effect on DOI-induced head twitches (5-HT2 receptor; before DOI, FIG. 1): significantly and dose dependently reduced head twitches
– | – | – | – | – | – | – | – | – | 24.92 | 18.51 | 9.21 | 7.06 | 2.74 | 1.75 | CCCC(=O)OC(CCCN1CC[C@H]2[C@@H](C1)c1cccc3c1N2CCN3C)c1ccc(F)cc1 (stereo partly shown) [Example 4] | Concentration ([2]; 0 min): 52.84 µM; Cleavage of the ester in blood ([2]; rat whole blood, during 90 minutes): steadily cleaved back to the compound of Example 1
